Experimental data as given in patent US9334265B2, “3-amino-pyrazole derivatives useful against tuberculosis” (GLAXO GROUP LIMITED, priority 2010, dated 2016).
≈ marks a conversion by molar mass, not a printed value. Where “and” joins values, the source holds several entries; their conditions need not be identical. Identical values can stand only once. Like-named read-outs stand apart in the source and are kept apart here.

How the values were obtained:
[1] = system: Mycobacterium tuberculosis H37Rv; test: Mycobacterium tuberculosis H37Rv Inhibition Assay (Whole Cell Assay); format: cell-based; conditions: ATCC 25618 / H37Rv, H37Rv strain (ATCC25618), Middlebrook 7H9, six days at 37° C., resazurin fluorescence after 48 hours
InhA = biological target: T1, InhA (Mycobacterium tuberculosis, UniProt P9WGR1); test: Mycobacterium tuberculosis InhA Inhibition Assay (Enzyme Assay); format: biochemical; conditions: 5 nM InhA, 50 μM DDCoA, 50 μM NADH, PIPES buffer pH 6.8, initial velocities of NADH consumption
T1 construct: made in house; host or cells: E. coli
Procedure: InhA is able to reduce 2-trans enoyl-CoA esters with concomitant oxidation of NADH to NAD^+. The assay format is based on the kinetic detection of NADH consumption.
Assay for InhA inhibition is carried out with mycobacterium recombinant protein expressed and purified form E. coli. Standard assay conditions for the determination of kinetic constants and inhibitors activity use 5 nM of InhA, 50 μM of Dodecenoyl-CoA synthesized and purified as described by Quémard et al (DDCoA) and 50 μM of NADH as substrates, and it is carried out in 30 mM PIPES buffer pH 6.8, containing 0.05% of BSA. […] Triclosan is used as positive control in every experiment. One μl of compounds is added to the wells containing 25 μl of the DDCoA+NADH mix, the reaction is started by adding 50 μl of the enzyme solution. Fluorescence from NADH is followed at room temperature during 20 minutes in a fluorescent plate reader (excitation at 340 nm; emission at 480 nm). IC50 values are determined using initial velocities of NADH consumption. • Quémard A, Sacchettini J C, Dessen A, et al. Enzymatic characterization of the target for isoniazid in Mycobacterium tuberculosis. Biochemistry 1995; 34:8235-41. Results of the Mycobacterium tuberculosis InhA Inhibition Assay (Enzyme Assay)

T1 sequence (P9WGR1 whole entry, looked up): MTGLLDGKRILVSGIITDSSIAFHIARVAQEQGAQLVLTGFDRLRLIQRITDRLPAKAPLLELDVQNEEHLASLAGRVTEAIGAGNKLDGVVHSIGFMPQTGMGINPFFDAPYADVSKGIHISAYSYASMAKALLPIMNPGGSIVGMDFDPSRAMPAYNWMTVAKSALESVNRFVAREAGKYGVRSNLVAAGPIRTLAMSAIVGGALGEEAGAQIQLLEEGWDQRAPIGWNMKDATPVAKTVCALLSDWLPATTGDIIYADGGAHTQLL

| SMILES | MIC [1] | IC50 (InhA; IC50 value) | IC50 (InhA; read-out: IC50 value) |
| --- | --- | --- | --- |
| CCc1csc(C(C)(O)c2nnc(Nc3ccn(Cc4csc(C)n4)n3)s2)n1 (stereo not shown) [Example 47, 1-(4-ethylthiazol-2-yl)-1-(5-((1-((2-methylthiazol-4-yl)methyl)-1H-pyrazol-3-yl)amino)-1,3,4-thiadiazol-2-yl)ethanol] | ≤ 1 µM | ≤ 115 nM | – |
| Cc1cc(C)n(C(C)c2nnc(Nc3ccn(C(C)c4ncccc4F)n3)s2)n1 (stereo not shown) [Example 35, 5-[1-(3,5-dimethyl-1H-pyrazol-1-yl)ethyl]-N-{1-[1-(3-fluoro-2-pyridinyl)ethyl]-1H-pyrazol-3-yl}-1,3,4-thiadiazol-2-amine] | > 10 µM | – | ≤ 121 nM |
| CCOc1cnc(Cn2ccc(Nc3nnc(C(C)(O)c4nc(C)cs4)s3)n2)c(F)c1 (stereo not shown) [Example 30, 1-{5-[(1-{[5-(ethyloxy)-3-fluoro-2-pyridinyl]methyl}-1H-pyrazol-3-yl)amino]-1,3,4-thiadiazol-2-yl}-1-(4-methyl-1,3-thiazol-2-yl)ethanol] | > 10 µM | 217 to 1080 nM | – |
| Cc1ccn([C@H](C)c2nnc(Nc3ccn(Cc4ncccc4F)n3)s2)n1 (single isomer, unassigned) [Example 39] | > 10 µM | 260 to 1300 nM | – |
| Cc1csc(C(C)(O)c2nnc(Nc3ccn(Cc4cnn(C)c4)n3)s2)n1 (stereo not shown) [Example 25, 1-[5-({1-[(1-methyl-1H-pyrazol-4-yl)methyl]-1H-pyrazol-3-yl}amino)-1,3,4-thiadiazol-2-yl]-1-(4-methyl-1,3-thiazol-2-yl)ethanol] | > 10 µM | 248 to 1240 nM | – |
| Cc1csc([C@@](C)(O)c2nnc(Nc3ccn(Cc4ncccc4F)n3)s2)n1 (single isomer, unassigned) [Example 42] | > 10 µM | 240 to 1200 nM | – |
| Cc1csc(C(C)(O)c2nnc(Nc3nn(Cc4csc(C)n4)c4ccccc34)s2)n1 (stereo not shown) [Example 45, 1-(4-methyl-1,3-thiazol-2-yl)-1-[5-({1-[(2-methyl-1,3-thiazol-4-yl)methyl]-1H-indazol-3-yl}amino)-1,3,4-thiadiazol-2-yl]ethanol] | > 10 µM | 213 to 1060 nM | – |
| Cc1cc(C)n(C(C)c2nnc(Nc3ccn(Cc4ncccc4F)n3)s2)n1 (stereo not shown) [Example 6, 5-[1-(3,5-dimethyl-1H-pyrazol-1-yl)ethyl]-N-{1-[(3-fluoro-2-pyridinyl)methyl]-1H-pyrazol-3-yl}-1,3,4-thiadiazol-2-amine] | ≤ 4 µM | – | ≤ 125 nM |
| CCOc1ncccc1Cn1ccc(Nc2nnc(C(C)n3nc(C)cc3C)s2)n1 (stereo not shown) [Example 11, 5-[1-(3,5-dimethyl-1H-pyrazol-1-yl)ethyl]-N-(1-{[2-(ethyloxy)-3-pyridinyl]methyl}-1H-pyrazol-3-yl)-1,3,4-thiadiazol-2-amine] | > 10 µM | > 1180 nM | – |
| Cc1csc(C(C)(O)c2nnc(Nc3ccn(Cc4[nH]ccc(=O)c4F)n3)s2)n1 (stereo not shown) [Example 33, 3-fluoro-2-{[3-({5-[1-hydroxy-1-(4-methyl-1,3-thiazol-2-yl)ethyl]-1,3,4-thiadiazol-2-yl}amino)-1H-pyrazol-1-yl]methyl}-4(1H)-pyridinone] | > 10 µM | > 1150 nM | – |
| Cc1csc([C@](C)(O)c2nnc(Nc3ccn(Cc4csc(C)n4)n3)s2)n1 (single isomer, unassigned) [Example 43] | – | ≤ 119 nM | – |
| CCOc1cccc(Cn2ccc(Nc3nnc(C(C)n4nc(C)cc4C)s3)n2)n1 (stereo not shown) [Example 36, 5-[1-(3,5-dimethyl-1H-pyrazol-1-yl)ethyl]-N-(1-{[6-(ethyloxy)-2-pyridinyl]methyl}-1H-pyrazol-3-yl)-1,3,4-thiadiazol-2-amine] | > 10 µM | – | ≤ 118 nM |
| Cc1csc(C(C)(O)c2nnc(Nc3ccn(Cc4ncccc4C)n3)s2)n1 (stereo not shown) [Example 14, 1-[5-({1-[(3-methyl-2-pyridinyl)methyl]-1H-pyrazol-3-yl}amino)-1,3,4-thiadiazol-2-yl]-1-(4-methyl-1,3-thiazol-2-yl)ethanol] | ≤ 1 µM | ≤ 121 nM and 9.67 nM | – |
| Cc1csc(C(C)(O)c2nnc(Nc3ccn(Cc4cc(C)on4)n3)s2)n1 (stereo not shown) [Example 22, 1-[5-({1-[(5-methyl-3-isoxazolyl)methyl]-1H-pyrazol-3-yl}amino)-1,3,4-thiadiazol-2-yl]-1-(4-methyl-1,3-thiazol-2-yl)ethanol] | 4 to 10 µM (≈ 1.61 to 4.03 µg/mL) | – | 124 to 248 nM |
| COc1c(C)cnc(Cn2ccc(Nc3nnc(C(C)(O)c4nc(C)cs4)s3)n2)c1C (stereo not shown) [Example 31, 1-{5-[(1-{[3,5-dimethyl-4-(methyloxy)-2-pyridinyl]methyl}-1H-pyrazol-3-yl)amino]-1,3,4-thiadiazol-2-yl}-1-(4-methyl-1,3-thiazol-2-yl)ethanol] | > 10 µM | 219 to 1090 nM | – |
| Cc1csc([C@](C)(O)c2nnc(Nc3ccn(Cc4ncccc4F)n3)s2)n1 (single isomer, unassigned) [Example 41] | ≤ 1 µM | ≤ 120 nM | – |
| Cc1csc([C@@](C)(O)c2nnc(Nc3ccn(Cc4csc(C)n4)n3)s2)n1 (single isomer, unassigned) [Example 44] | > 10 µM | 238 to 1190 nM | – |
| Cc1ccn(C(C)c2nnc(Nc3ccn(Cc4c(C)noc4C)n3)s2)n1 (stereo not shown) [Example 27, N-{1-[(3,5-dimethyl-4-isoxazolyl)methyl]-1H-pyrazol-3-yl}-5-[1-(3-methyl-1H-pyrazol-1-yl)ethyl]-1,3,4-thiadiazol-2-amine] | > 10 µM | > 1300 nM | – |
| Cc1csc(C(C)(O)c2nnc(Nc3ccn(Cc4c(C)noc4C)n3)s2)n1 (stereo not shown) [Example 26, 1-[5-({1-[(3,5-dimethyl-4-isoxazolyl)methyl]-1H-pyrazol-3-yl}amino)-1,3,4-thiadiazol-2-yl]-1-(4-methyl-1,3-thiazol-2-yl)ethanol] | > 10 µM | > 1200 nM | – |
| Cc1csc(C(C)(O)c2nnc(Nc3ccn(Cc4csc(C)n4)n3)s2)n1 (racemic) [Example 21, 1-(4-methyl-1,3-thiazol-2-yl)-1-[5-({1-[(2-methyl-1,3-thiazol-4-yl)methyl]-1H-pyrazol-3-yl}amino)-1,3,4-thiadiazol-2-yl]ethanol] | ≤ 1 µM | – | ≤ 119 nM |
| Cc1csc(C(C)(O)c2nnc(Nc3ccn(Cc4cccc5cccnc45)n3)s2)n1 (stereo not shown) [Example 20, 1-(4-methyl-1,3-thiazol-2-yl)-1-(5-{[1-(8-quinolinylmethyl)-1H-pyrazol-3-yl]amino}-1,3,4-thiadiazol-2-yl)ethanol] | ≤ 4 µM | – | ≤ 111 nM |
| Cc1cc(C)n(C(C)c2nnc(Nc3ccn(Cc4cnc(C)c(Cl)c4)n3)s2)n1 (stereo not shown) [Example 8, N-{1-[(5-chloro-6-methyl-3-pyridinyl)methyl]-1H-pyrazol-3-yl}-5-[1-(3,5-dimethyl-1H-pyrazol-1-yl)ethyl]-1,3,4-thiadiazol-2-amine] | > 10 µM | – | ≤ 117 nM |
| Cc1csc(C(C)(O)c2nnc(Nc3ccn(Cc4c(F)cncc4F)n3)s2)n1 (stereo not shown) [Example 32, 1-[5-({1-[(3,5-difluoro-4-pyridinyl)methyl]-1H-pyrazol-3-yl}amino)-1,3,4-thiadiazol-2-yl]-1-(4-methyl-1,3-thiazol-2-yl)ethanol] | > 10 µM | > 1150 nM | – |
| Cc1csc(C(C)(O)c2nnc(Nc3ccn(Cc4ncccc4O)n3)s2)n1 (stereo not shown) [Example 16, 2-{[3-({5-[1-hydroxy-1-(4-methyl-1,3-thiazol-2-yl)ethyl]-1,3,4-thiadiazol-2-yl}amino)-1H-pyrazol-1-yl]methyl}-3-pyridinol] | > 10 µM | – | – |
